Here are results for six compounds from ChEMBL document CHEMBL1134448, “Design, synthesis, and proposed active site binding analysis of monocyclic 2-azetidinone inhibitors of prostate specific antigen” (J Med Chem, 2001).

pIC50: −log10 of the molar value.

In the assay the target is Prostate-specific antigen (KLK3) (Homo sapiens) (UniProt P07288). The experiment in a line: Inhibition of Prostate specific antigen PSA (Serine Protease).
Sequence of Prostate-specific antigen (KLK3) (Homo sapiens) (P07288 whole entry, looked up): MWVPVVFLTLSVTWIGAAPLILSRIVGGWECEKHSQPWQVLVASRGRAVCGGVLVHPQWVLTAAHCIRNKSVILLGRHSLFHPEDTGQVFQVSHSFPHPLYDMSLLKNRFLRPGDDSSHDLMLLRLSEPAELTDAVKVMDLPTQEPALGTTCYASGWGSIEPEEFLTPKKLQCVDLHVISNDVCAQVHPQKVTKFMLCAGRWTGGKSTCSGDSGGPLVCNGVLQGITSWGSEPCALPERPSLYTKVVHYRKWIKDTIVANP
Broadly, the pIC50 is the negative decadic logarithm of the IC50, by convention in mol/L. A higher pIC50 goes with a low IC50. Compound `O=C(O)c1ccc(COC(=O)[C@@H]2[C@H](Cc3ccc(O)cc3)C(=O)N2C(=O)Cc2cccc(C(=O)OCc3ccccc3)c2)cc1` gave a pIC50 of 5.46.
With `O=C(OCc1ccccc1)c1cccc(CC(=O)N2C(=O)[C@@H](Cc3ccc(O)cc3)[C@H]2C(=O)OCc2ccccc2)c1` (stereo in doubt; (3S,4S)-18) the figure was 6.65.
In the case of `O=C(O)c1ccc(COC(=O)[C@@H]2[C@H](Cc3ccccc3)C(=O)N2C(=O)Cc2cccc(C(=O)OCc3ccccc3)c2)cc1` it was 5.05.
For `O=C(OCc1ccccc1)c1cccc(CC(=O)N2C(=O)[C@@H](Cc3ccc(O)cc3)[C@H]2C(=O)OCc2ccccc2)c1` (stereo in doubt; 16), the pIC50 was 6.46.
With `O=C(O)c1ccc(COC(=O)c2cccc(CC(=O)N3C(=O)[C@@H](Cc4ccccc4)[C@H]3C(=O)OCc3ccc(C(=O)O)cc3)c2)cc1` the figure was 5.23.
Compound `O=C(OCc1ccccc1)c1cccc(CC(=O)N2C(=O)[C@@H](Cc3ccccc3)[C@H]2C(=O)OCc2ccccc2)c1` had a pIC50 of 5.84.
